Source: ChEMBL document CHEMBL1909046, “DrugMatrix in vitro pharmacology data”

Assays:
Nitric oxide synthase 1 = Nitric oxide synthase 1 (Rattus norvegicus, UniProt P29476); format: tissue-based, Cerebellum; further: in other assays of this panel Not Active means under 50% inhibition at 10 µM
[1] = target: Sodium-dependent dopamine transporter (Homo sapiens, UniProt Q01959); experiment: DRUGMATRIX: Dopamine Transporter radioligand binding (ligand: [125I] RTI-55); format: cell membranes, CHO-K1, Membrane; conditions: cho-k1; Not Active = under 50% inhibition at 10 µM
[2] = DRUGMATRIX: Imidazoline I2, Central radioligand binding (ligand: [3H] Idazoxan); format: cell membranes, Rattus norvegicus, Wistar, Cerebral cortex, Membrane; conditions: Not Active = under 50% inhibition at 10 µM
[3] = target: T1, Alpha-1D adrenergic receptor (Homo sapiens, UniProt P25100); format: cell membranes, HEK293, Membrane; conditions: hek293; further: in other assays of this panel Not Active means under 50% inhibition at 10 µM
T1 sequence (P25100 whole entry): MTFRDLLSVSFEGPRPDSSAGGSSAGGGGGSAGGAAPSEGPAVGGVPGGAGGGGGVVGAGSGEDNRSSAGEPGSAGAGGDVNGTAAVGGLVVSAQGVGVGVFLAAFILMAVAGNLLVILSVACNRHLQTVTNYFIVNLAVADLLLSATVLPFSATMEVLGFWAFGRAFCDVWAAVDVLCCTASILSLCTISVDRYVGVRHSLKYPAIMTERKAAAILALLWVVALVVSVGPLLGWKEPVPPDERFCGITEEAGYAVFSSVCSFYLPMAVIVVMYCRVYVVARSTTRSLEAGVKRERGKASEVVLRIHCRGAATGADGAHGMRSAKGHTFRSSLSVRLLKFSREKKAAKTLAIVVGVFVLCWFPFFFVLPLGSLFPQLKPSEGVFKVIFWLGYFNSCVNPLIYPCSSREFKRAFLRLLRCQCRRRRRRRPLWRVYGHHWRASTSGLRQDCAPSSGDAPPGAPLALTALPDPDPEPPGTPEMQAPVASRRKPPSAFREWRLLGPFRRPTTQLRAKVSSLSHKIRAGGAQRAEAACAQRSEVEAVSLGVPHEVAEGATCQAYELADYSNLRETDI

Glucocorticoid receptor = target: T2, Glucocorticoid receptor (Homo sapiens, UniProt P04150); conditions: hela s3; further: in other assays of this panel Not Active means under 50% inhibition at 10 µM
T2 sequence (P04150 whole entry): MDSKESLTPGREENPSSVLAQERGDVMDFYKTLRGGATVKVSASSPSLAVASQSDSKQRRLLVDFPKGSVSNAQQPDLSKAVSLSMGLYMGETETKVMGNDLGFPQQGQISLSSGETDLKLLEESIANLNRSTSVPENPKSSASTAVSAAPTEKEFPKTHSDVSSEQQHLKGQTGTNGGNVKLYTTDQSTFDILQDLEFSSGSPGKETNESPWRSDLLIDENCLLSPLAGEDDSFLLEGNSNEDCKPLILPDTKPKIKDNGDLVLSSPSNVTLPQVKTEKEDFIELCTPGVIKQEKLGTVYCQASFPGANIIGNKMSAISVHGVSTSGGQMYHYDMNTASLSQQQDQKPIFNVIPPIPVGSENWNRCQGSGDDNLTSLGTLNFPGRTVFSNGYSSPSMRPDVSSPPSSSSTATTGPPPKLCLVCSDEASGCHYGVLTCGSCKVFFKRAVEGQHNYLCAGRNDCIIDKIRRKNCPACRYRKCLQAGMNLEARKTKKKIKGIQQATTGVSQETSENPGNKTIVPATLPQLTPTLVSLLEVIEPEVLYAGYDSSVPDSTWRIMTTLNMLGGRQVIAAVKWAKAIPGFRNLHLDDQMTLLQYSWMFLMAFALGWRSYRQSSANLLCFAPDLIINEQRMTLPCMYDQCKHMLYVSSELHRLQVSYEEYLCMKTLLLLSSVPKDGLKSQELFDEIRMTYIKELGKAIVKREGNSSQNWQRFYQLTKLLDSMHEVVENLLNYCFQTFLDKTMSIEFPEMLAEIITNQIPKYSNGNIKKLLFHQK

[4] = target: Vascular endothelial growth factor receptor 1 (Homo sapiens, UniProt P17948); format: cell-based; conditions: huvec; further: in other assays of this panel Not Active means under 50% inhibition at 10 µM
Sequence of Vascular endothelial growth factor receptor 1 (P17948 whole entry): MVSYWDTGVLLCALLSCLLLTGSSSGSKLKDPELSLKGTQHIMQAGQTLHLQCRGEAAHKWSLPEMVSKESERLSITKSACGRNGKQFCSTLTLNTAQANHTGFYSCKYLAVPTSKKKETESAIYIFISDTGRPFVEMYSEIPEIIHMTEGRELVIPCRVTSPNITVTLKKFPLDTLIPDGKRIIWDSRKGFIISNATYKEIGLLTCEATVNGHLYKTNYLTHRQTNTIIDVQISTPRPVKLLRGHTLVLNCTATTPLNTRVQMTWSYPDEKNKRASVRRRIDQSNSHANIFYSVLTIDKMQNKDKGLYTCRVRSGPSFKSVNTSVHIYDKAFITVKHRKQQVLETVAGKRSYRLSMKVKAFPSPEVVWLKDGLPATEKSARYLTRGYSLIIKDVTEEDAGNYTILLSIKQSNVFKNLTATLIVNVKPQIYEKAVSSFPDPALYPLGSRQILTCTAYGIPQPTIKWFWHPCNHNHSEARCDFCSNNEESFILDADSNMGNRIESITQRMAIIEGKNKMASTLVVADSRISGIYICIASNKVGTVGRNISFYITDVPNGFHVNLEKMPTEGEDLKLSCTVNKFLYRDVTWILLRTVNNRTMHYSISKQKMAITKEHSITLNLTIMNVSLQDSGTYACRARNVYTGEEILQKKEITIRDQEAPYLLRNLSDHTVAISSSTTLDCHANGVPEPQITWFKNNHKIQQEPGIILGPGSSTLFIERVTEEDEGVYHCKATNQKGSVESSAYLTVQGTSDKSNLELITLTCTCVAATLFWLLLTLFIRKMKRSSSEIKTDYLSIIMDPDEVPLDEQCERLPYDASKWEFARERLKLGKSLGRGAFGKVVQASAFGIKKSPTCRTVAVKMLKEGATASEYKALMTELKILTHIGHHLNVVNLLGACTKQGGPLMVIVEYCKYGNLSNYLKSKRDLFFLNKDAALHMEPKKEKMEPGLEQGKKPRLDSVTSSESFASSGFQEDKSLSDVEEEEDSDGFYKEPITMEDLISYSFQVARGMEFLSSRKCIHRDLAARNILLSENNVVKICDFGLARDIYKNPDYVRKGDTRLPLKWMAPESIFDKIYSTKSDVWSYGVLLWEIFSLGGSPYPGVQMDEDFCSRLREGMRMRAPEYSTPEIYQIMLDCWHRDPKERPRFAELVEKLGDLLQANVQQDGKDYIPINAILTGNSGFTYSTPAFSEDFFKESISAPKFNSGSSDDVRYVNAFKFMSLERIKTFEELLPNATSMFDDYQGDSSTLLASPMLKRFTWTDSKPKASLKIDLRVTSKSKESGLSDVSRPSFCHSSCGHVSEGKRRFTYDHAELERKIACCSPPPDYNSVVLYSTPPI

Sequence of Sodium-dependent dopamine transporter (Q01959 whole entry): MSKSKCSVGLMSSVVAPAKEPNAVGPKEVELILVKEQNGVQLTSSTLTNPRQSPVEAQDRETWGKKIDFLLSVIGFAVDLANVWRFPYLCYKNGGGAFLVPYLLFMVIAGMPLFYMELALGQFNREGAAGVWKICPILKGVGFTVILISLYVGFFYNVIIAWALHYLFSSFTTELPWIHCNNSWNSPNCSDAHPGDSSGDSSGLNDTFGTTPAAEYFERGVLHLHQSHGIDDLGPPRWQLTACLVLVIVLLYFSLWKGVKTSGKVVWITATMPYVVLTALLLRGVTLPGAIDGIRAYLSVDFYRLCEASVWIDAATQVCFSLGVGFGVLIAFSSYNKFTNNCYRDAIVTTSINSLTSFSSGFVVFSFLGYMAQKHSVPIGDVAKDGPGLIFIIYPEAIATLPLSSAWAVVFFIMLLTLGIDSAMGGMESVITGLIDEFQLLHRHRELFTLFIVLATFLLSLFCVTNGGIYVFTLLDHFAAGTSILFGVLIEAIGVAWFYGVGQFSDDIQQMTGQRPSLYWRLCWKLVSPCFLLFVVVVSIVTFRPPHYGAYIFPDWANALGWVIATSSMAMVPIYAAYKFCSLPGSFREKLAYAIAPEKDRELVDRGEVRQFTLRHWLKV
Sequence of Nitric oxide synthase 1 (P29476 whole entry): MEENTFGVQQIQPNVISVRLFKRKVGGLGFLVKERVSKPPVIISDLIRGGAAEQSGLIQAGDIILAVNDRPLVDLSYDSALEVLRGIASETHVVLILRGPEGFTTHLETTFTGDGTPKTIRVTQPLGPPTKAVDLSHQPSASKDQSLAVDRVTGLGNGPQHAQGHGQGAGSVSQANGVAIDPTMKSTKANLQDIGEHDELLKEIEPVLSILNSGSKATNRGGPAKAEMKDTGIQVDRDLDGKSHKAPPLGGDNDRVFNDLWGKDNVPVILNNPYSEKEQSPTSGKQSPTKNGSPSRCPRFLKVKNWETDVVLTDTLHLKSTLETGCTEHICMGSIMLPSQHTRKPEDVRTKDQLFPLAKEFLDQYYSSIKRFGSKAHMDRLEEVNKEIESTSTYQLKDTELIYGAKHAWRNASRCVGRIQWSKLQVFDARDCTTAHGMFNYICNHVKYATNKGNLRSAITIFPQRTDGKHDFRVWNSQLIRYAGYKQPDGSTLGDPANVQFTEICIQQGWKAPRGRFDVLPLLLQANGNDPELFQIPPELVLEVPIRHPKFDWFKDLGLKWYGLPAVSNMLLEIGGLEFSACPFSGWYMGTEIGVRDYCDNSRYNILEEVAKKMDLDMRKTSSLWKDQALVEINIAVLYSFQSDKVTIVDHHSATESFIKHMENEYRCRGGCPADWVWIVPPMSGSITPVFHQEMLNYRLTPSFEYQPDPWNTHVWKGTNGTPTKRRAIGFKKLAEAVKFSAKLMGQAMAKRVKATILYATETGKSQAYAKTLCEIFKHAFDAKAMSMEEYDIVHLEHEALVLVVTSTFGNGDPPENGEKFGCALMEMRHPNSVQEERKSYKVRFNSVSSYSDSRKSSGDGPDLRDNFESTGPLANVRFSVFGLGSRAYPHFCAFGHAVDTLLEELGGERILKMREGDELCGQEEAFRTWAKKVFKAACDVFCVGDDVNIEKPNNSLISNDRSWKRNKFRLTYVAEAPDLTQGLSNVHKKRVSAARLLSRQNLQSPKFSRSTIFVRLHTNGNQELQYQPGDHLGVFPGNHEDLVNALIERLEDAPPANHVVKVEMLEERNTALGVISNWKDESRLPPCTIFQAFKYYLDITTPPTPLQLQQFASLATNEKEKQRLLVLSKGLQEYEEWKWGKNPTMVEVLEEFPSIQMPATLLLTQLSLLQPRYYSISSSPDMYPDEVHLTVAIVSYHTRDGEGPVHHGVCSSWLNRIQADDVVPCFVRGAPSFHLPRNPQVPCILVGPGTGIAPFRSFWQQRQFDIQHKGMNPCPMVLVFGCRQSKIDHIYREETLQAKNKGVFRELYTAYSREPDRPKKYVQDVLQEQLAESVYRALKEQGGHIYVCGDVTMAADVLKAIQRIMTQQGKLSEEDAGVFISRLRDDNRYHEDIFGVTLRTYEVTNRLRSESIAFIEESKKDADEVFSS

COc1cc([C@@H]2c3cc4c(cc3[C@H](O)[C@H]3COC(=O)[C@H]23)OCO4)cc(OC)c1OC [PODOFILOX]
Not Active: IC50 (Nitric oxide synthase 1) | IC50 [1] | IC50 [2] | Ki [2] | IC50 [3] | IC50 (Glucocorticoid receptor) | IC50 [4]

COC(=O)C[C@](O)(CCC(C)(C)O)C(=O)O[C@@H]1C(OC)=C[C@]23CCCN2CCc2cc4c(cc2[C@H]13)OCO4 [HARRINGTONINE]
Not Active: IC50 (Nitric oxide synthase 1) | IC50 [1] | IC50 [2] | Ki [2] | IC50 [3] | IC50 (Glucocorticoid receptor) | IC50 [4]

CCCCCCNC(=O)n1cc(F)c(=O)[nH]c1=O [CARMOFUR]
Not Active: IC50 (Nitric oxide synthase 1) | IC50 [1] | IC50 [2] | Ki [2] | IC50 [3] | IC50 (Glucocorticoid receptor) | IC50 [4]

O=c1[nH]cnc2c1ncn2[C@H]1CC[C@@H](CO)O1 [DIDANOSINE]
Not Active: IC50 (Nitric oxide synthase 1) | IC50 [1] | IC50 [2] | Ki [2] | IC50 [3] | IC50 (Glucocorticoid receptor) | IC50 [4]

CC(C)Cc1ccc([C@H](C)C(=O)O)cc1 [DEXIBUPROFEN]
Not Active: IC50 (Nitric oxide synthase 1) | IC50 [1] | IC50 [2] | Ki [2] | IC50 [3] | IC50 (Glucocorticoid receptor) | IC50 [4]

CC(C)(C#N)c1cc(Cn2cncn2)cc(C(C)(C)C#N)c1 [ANASTROZOLE]
Not Active: IC50 (Nitric oxide synthase 1) | IC50 [1] | IC50 [2] | Ki [2] | IC50 [3] | IC50 (Glucocorticoid receptor) | IC50 [4]

O=C1c2ccccc2C(=O)C1c1ccccc1 [PHENINDIONE]
Not Active: IC50 (Nitric oxide synthase 1) | IC50 [1] | IC50 [2] | Ki [2] | IC50 [3] | IC50 (Glucocorticoid receptor) | IC50 [4]

NC(=O)NC(=O)Cc1ccccc1 [PHENACEMIDE]
Not Active: IC50 (Nitric oxide synthase 1) | IC50 [1] | IC50 [2] | Ki [2] | IC50 [3] | IC50 (Glucocorticoid receptor) | IC50 [4]

OC[C@H]1O[C@@H]2O[C@H]3[C@H](O)[C@@H](O)[C@@H](O[C@H]4[C@H](O)[C@@H](O)[C@@H](O[C@H]5[C@H](O)[C@@H](O)[C@@H](O[C@H]6[C@H](O)[C@@H](O)[C@@H](O[C@H]7[C@H](O)[C@@H](O)[C@@H](O[C@H]1[C@H](O)[C@H]2O)O[C@@H]7CO)O[C@@H]6CO)O[C@@H]5CO)O[C@@H]4CO)O[C@@H]3CO [ALFADEX]
Not Active: IC50 (Nitric oxide synthase 1) | IC50 [1] | IC50 [2] | Ki [2] | IC50 [3] | IC50 (Glucocorticoid receptor) | IC50 [4]

ClC1=C(Cl)[C@]2(Cl)[C@@H]3[C@@H]4C[C@@H]([C@H]5O[C@@H]45)[C@@H]3[C@@]1(Cl)C2(Cl)Cl [DIELDRIN]
Not Active: IC50 (Nitric oxide synthase 1) | IC50 [1] | IC50 [2] | Ki [2] | IC50 [3] | IC50 (Glucocorticoid receptor) | IC50 [4]

O=c1[nH]c2ccccc2c2ccccc12
Not Active: IC50 (Nitric oxide synthase 1) | IC50 [1] | IC50 [2] | Ki [2] | IC50 [3] | IC50 (Glucocorticoid receptor) | IC50 [4]

Nc1ccc(C(=O)O)c(O)c1 [AMINOSALICYLIC ACID]
Not Active: IC50 (Nitric oxide synthase 1) | IC50 [1] | IC50 [2] | Ki [2] | IC50 [3] | IC50 (Glucocorticoid receptor) | IC50 [4]
